The target in one experiment is T1, HA1 adenosine receptor (Homo sapiens, UniProt P30542).
T1 sequence (P30542 1-326): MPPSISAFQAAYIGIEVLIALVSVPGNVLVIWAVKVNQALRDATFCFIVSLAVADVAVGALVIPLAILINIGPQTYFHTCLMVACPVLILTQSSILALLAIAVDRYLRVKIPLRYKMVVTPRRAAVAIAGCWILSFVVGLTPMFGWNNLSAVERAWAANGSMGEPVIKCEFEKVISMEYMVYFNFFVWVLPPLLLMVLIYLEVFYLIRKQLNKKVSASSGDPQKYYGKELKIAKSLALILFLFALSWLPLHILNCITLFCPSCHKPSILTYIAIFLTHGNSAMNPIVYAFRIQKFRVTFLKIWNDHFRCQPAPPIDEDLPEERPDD
Description: Human adenosine A1 receptor affinity (Ki hA1). The conditions noted are these: affinity to human adenosine A1 receptor. The class given is binding.

In experiment [1] the target is T2, human adenosine A2A receptor (Homo sapiens, UniProt P29274).
T2 construct: expressed in transfected cells; host or cells: CHO cells, Semliki Forest virus expression system; membrane preparation
T2 sequence (P29274 whole entry): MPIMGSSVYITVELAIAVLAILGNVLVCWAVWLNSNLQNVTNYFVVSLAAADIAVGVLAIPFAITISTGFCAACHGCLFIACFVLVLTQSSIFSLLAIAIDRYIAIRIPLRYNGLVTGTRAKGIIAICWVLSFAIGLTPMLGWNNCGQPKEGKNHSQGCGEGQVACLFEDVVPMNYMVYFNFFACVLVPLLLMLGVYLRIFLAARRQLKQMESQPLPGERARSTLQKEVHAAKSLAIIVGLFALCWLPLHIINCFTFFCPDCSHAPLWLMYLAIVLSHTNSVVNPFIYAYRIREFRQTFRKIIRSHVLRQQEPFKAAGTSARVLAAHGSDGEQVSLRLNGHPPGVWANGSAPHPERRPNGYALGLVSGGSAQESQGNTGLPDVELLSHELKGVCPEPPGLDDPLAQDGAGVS
Description: Human adenosine A2A receptor [3H]-SCH-58261 binding assay. The following applies: for selectivity (A1/A2a): ratio KiHA1 divided by KiHA2A. How it is done: Human Adenosine A2A Receptor
The human adenosine A2A receptor was recombinantly expressed in chinese hamster ovary (CHO) cells using the semliki forest virus expression system. Cells were harvested, washed twice by centrifugation, homogenized and again washed by centrifugation. The final washed membrane pellet was suspended in a Tris (50 mM) buffer containing 120 mM NaCl, 5 mM KCl, 2 mM CaCl2 and 10 MM MgCl2 (pH 7.4) (buffer A). […] Compounds were tested at 10 concentrations from 10 μM-0.3 nM. All assays were conducted in duplicate and repeated at least two times. Assay plates were incubated for 1 hour at room temperature before centrifugation and then bound ligand determined using a Packard Topcount scintillation counter. IC50 values were calculated using a non-linear curve fitting program and Ki values calculated using the Cheng-Prussoff equation.

[2] abbreviates: affinity to human adenosine A2A receptor, read-out: Ki HA2A.
Where [3] appears, read: recombinant human A2A in CHO cell membranes, [3H]-SCH-58261, Cheng-Prussoff, read-out: Ki hA2A.

Where two headings read alike, the source gives them in different places.

In general, Ki refers to the dissociation constant of the complex between target and ligand, obtained from inhibition or displacement. For `CCN(CC)C(=O)c1cc(N)n2nc(-c3ccc(Br)o3)nc2c1` [Example 21, 5-Amino-2-(5-bromo-furan-2-yl)-[1,2,4]triazolo[1,5-a]pyridine-7-carboxylic acid diethylamide], the Ki on HA1 adenosine receptor is 0.232 µM.

Take `Nc1cc(C(=O)N2CCCC2)cc2nc(-c3ccc(Br)o3)nn12` [Example 22, [5-Amino-2-(5-bromo-furan-2-yl)-[1,2,4]triazolo[1,5-a]pyridin-7-yl]-pyrrolidin-1-yl-methanone]: the Ki at HA1 adenosine receptor came out at 0.548 µM.

For `Nc1cc(C(=O)N2CCCCC2)cc2nc(-c3ccc(Br)o3)nn12` [Example 23, [5-Amino-2-(5-bromo-furan-2-yl)-[1,2,4]triazolo[1,5-a]pyridin-7-yl]-piperidin-1-yl-methanone], on HA1 adenosine receptor, affinity was put at a Ki of 0.276 µM.

`Cc1ccc(-c2nc3cc(C(=O)N4CCCC4)cc(N)n3n2)o1` [Example 27, [5-Amino-2-(5-methyl-furan-2-yl)-[1,2,4]triazolo[1,5-a]pyridin-7-yl]-pyrrolidin-1-yl-methanone] returned an inhibition constant Ki on HA1 adenosine receptor of 0.94 µM.

Turning to `Cc1ccc(-c2nc3cc(C(=O)N4CCCCC4)cc(N)n3n2)o1` [Example 28, [5-Amino-2-(5-methyl-furan-2-yl)-[1,2,4]triazolo[1,5-a]pyridin-7-yl]-piperidin-1-yl-methanone], the Ki on HA1 adenosine receptor came to 0.696 µM.

Take `Cc1ccsc1-c1nc2cc(C(=O)NC3CCCCC3)cc(N)n2n1` [Example 37, 5-Amino-2-(3-methyl-thiophen-2-yl)-[1,2,4]triazolo[1,5-a]pyridine-7-carboxylic acid cyclohexylamide]: the Ki in experiment [1] (setting [2]) amounted to 0.375 µM.

Turning to `COc1ccc(CNC(=O)c2cc(N)n3nc(-c4ccccn4)nc3c2)cc1` [Example 42, 5-Amino-2-pyridin-2-yl-[1,2,4]triazolo[1,5-a]pyridine-7-carboxylic acid 4-methoxy-benzylamide], the Ki in experiment [1] (setting [2]) was determined as 0.341 µM.

Take `COc1ccc(-c2nc3cc(C(=O)N(CCN(C)C)Cc4ccccc4)cc(N)n3n2)s1` [Example 53, 5-Amino-2-(5-methoxy-thiophen-2-yl)-[1,2,4]triazolo[1,5-a]pyridine-7-carboxylic acid benzyl-(2-dimethylamino-ethyl)-amide]: the Ki in experiment [1] (setting [2]) worked out at 0.327 µM.

Take `COc1ccc(-c2nc3cc(C(=O)NCCc4ccccc4OC)cc(N)n3n2)s1` [Example 54, 5-Amino-2-(5-methoxy-thiophen-2-yl)-[1,2,4]triazolo[1,5-a]pyridine-7-carboxylic acid [2-(2-methoxy-phenyl)-ethyl]-amide]: the Ki in experiment [1] (setting [2]) was 0.315 µM.

As for `COc1ccc(-c2nc3cc(C(=O)NCCc4ccccc4F)cc(N)n3n2)s1` [Example 57, 5-Amino-2-(5-methoxy-thiophen-2-yl)-[1,2,4]triazolo[1,5-a]pyridine-7-carboxylic acid [2-(2-fluoro-phenyl)-ethyl]-amide], in experiment [1] (setting [2]), the Ki worked out at 0.337 µM.

Take `COc1ccc(-c2nc3cc(C(=O)NC(C)c4ccccc4)cc(N)n3n2)s1` (stereo not drawn) [Example 60, 5-Amino-2-(5-methoxy-thiophen-2-yl)-[1,2,4]triazolo[1,5-a]pyridine-7-carboxylic acid (1-phenyl-ethyl)-amide]: the Ki in experiment [1] (setting [2]) was 0.392 µM.

As to `COc1ccc(-c2nc3cc(C(=O)NCc4cccnc4)cc(N)n3n2)s1` [Example 61, 5-Amino-2-(5-methoxy-thiophen-2-yl)-[1,2,4]triazolo[1,5-a]pyridine-7-carboxylic acid (pyridin-3-ylmethyl)-amide], the Ki in experiment [1] (setting [2]) stood at 0.333 µM.

For `COc1ccc(-c2nc3cc(C(=O)N4CCCC4)cc(N)n3n2)s1` [Example 69, [5-Amino-2-(5-methoxy-thiophen-2-yl)-[1,2,4]triazolo[1,5-a]pyridin-7-yl]-pyrrolidin-1-yl-methanone], the Ki in experiment [1] (setting [2]) stood at 0.339 µM.

In the case of `COc1ccc(-c2nc3cc(C(=O)NC4CC4)cc(N)n3n2)s1` [Example 72, 5-Amino-2-(5-methoxy-thiophen-2-yl)-[1,2,4]triazolo[1,5-a]pyridine-7-carboxylic acid cyclopropylamide], the Ki in experiment [1] (setting [2]) was 0.26 µM.

In the case of `COc1ccc(-c2nc3cc(C(=O)NC4CCCCCC4)cc(N)n3n2)s1` [Example 74, 5-Amino-2-(5-methoxy-thiophen-2-yl)-[1,2,4]triazolo[1,5-a]pyridine-7-carboxylic acid cycloheptylamide], in experiment [1] (setting [2]), the Ki was determined as 0.367 µM.

Turning to `CCN(Cc1ccccc1F)C(=O)c1cc(N)n2nc(-c3ccc(OC)s3)nc2c1` [Example 76, 5-Amino-2-(5-methoxy-thiophen-2-yl)-[1,2,4]triazolo[1,5-a]pyridine-7-carboxylic acid ethyl-(2-fluoro-benzyl)-amide], in experiment [1] (setting [2]), the Ki stood at 0.0285 µM.

With `Nc1cc(C(=O)NCc2ccccc2Br)cc2nc(-c3ccc[nH]3)nn12` [Example 92, 5-Amino-2-(1H-pyrrol-2-yl)-[1,2,4]triazolo[1,5-a]pyridine-7-carboxylic acid 2-bromo-benzylamide], the Ki in experiment [1] (setting [2]) turned out to be 0.293 µM.

For `CCN(Cc1ccccc1)C(=O)c1cc(N)n2nc(-c3ccc[nH]3)nc2c1` [Example 94, 5-Amino-2-(1H-pyrrol-2-yl)-[1,2,4]triazolo[1,5-a]pyridine-7-carboxylic acid benzyl-ethyl-amide], in experiment [1] (setting [2]), the Ki worked out at 0.395 µM.

Regarding `Nc1cc(C(=O)NC2CCC2)cc2nc(-c3ccc[nH]3)nn12` [Example 95, 5-Amino-2-(1H-pyrrol-2-yl)-[1,2,4]triazolo[1,5-a]pyridine-7-carboxylic acid cyclobutylamide], the Ki in experiment [1] (setting [2]) was 0.392 µM.

Regarding `COc1ccc(CNC(=O)c2cc(N)n3nc(-c4cccs4)nc3c2)cc1` [Example 229, 5-Amino-2-thiophen-2-yl-[1,2,4]triazolo[1,5-a]pyridine-7-carboxylic acid 4-methoxy-benzylamide], the inhibition constant Ki in experiment [1] (setting [2]) is 0.384 µM.

On to `Nc1cc(C(=O)NCc2ccc(Cl)cc2)cc2nc(-c3ccoc3)nn12` [Example 230, 5-Amino-2-furan-3-yl-[1,2,4]triazolo[1,5-a]pyridine-7-carboxylic acid 4-chloro-benzylamide], for which, in experiment [1] (setting [2]), the Ki is 0.329 µM.

Turning to `COc1ccc(CNC(=O)c2cc(N)n3nc(-c4ccc(Br)o4)nc3c2)cc1` [Example 231, 5-Amino-2-(5-bromo-furan-2-yl)-[1,2,4]triazolo[1,5-a]pyridine-7-carboxylic acid 4-methoxy-benzylamide], the Ki in experiment [1] (setting [2]) was 0.365 µM.

As for `Nc1cc(C(=O)N2CCSCC2)cc2nc(-c3nccs3)nn12` [Example 318, (5-Amino-2-thiazol-2-yl-[1,2,4]triazolo[1,5-a]pyridin-7-yl)-thiomorpholin-4-yl-methanone], the Ki in experiment [1] (setting [2]) amounted to 0.332 µM.

Regarding `COCCN(CCOC)C(=O)c1cc(N)n2nc(-c3nccs3)nc2c1` [Example 321, 5-Amino-2-thiazol-2-yl-[1,2,4]triazolo[1,5-a]pyridine-7-carboxylic acid bis-(2-methoxy-ethyl)-amide], the Ki in experiment [1] (setting [2]) amounted to 0.319 µM.

`CN(CCc1ccccn1)C(=O)c1cc(N)n2nc(-c3nccs3)nc2c1` [Example 324, 5-Amino-2-thiazol-2-yl-[1,2,4]triazolo[1,5-a]pyridine-7-carboxylic acid methyl-(2-pyridin-2-yl-ethyl)-amide]: the Ki in experiment [1] (setting [2]) came to 0.295 µM.

In the case of `Nc1cc(C(=O)N2CC=C(c3ccccc3)CC2)cc2nc(-c3nccs3)nn12` [Example 326, (5-Amino-2-thiazol-2-yl-[1,2,4]triazolo[1,5-a]pyridin-7-yl)-(4-phenyl-3,6-dihydro-2H-pyridin-1-yl)-methanone], in experiment [1] (setting [2]), the Ki amounted to 0.373 µM.

Take `CN(C)C(=O)CN(C)C(=O)c1cc(N)n2nc(-c3nccs3)nc2c1` [Example 399, 5-Amino-2-thiazol-2-yl-[1,2,4]triazolo[1,5-a]pyridine-7-carboxylic acid dimethylcarbamoylmethyl-methyl-amide]: the “selectivity (A1/A2a)” value in experiment [1] was 61.4. In addition, in experiment [1] (setting [3]), the Ki was 0.101 µM.

Regarding `CN(C)C(=O)[C@@H]1CCCN1C(=O)c1cc(N)n2nc(-c3nccs3)nc2c1` [Example 402, 1-(5-Amino-2-thiazol-2-yl-[1,2,4]triazolo[1,5-a]pyridine-7-carbonyl)-pyrrolidine-2-carboxylic acid dimethylamide], in experiment [1], the “selectivity (A1/A2a)” value is given as 21.2. In addition, the Ki in experiment [1] (setting [3]) is 0.293 µM.

For `CC(=O)N(C)C1CCN(C(=O)c2cc(N)n3nc(-c4nccs4)nc3c2)C1` (stereo not drawn) [Example 403, N-[1-(5-Amino-2-thiazol-2-yl-[1,2,4]triazolo[1,5-a]pyridine-7-carbonyl)-pyrrolidin-3-yl]-N-methyl-acetamide], the “selectivity (A1/A2a)” value in experiment [1] stood at 15.6. In experiment [1] (setting [3]), the Ki stood at 0.398 µM.

On to `CN(C)C(=O)CN(C)C(=O)c1cc(N)n2nc(-c3ccccn3)nc2c1` [Example 428, 5-Amino-2-pyridin-2-yl-[1,2,4]triazolo[1,5-a]pyridine-7-carboxylic acid dimethylcarbamoylmethyl-methyl-amide], for which the “selectivity (A1/A2a)” value in experiment [1] is reported as 53.1. Further, in experiment [1] (setting [3]), the Ki worked out at 0.117 µM.

For `CCN(CC)C(=O)C1CCCN(C(=O)c2cc(N)n3nc(-c4ccccn4)nc3c2)C1` (stereo not drawn) [Example 434, 1-(5-Amino-2-pyridin-2-yl-[1,2,4]triazolo[1,5-a]pyridine-7-carbonyl)-piperidine-3-carboxylic acid diethylamide], the “selectivity (A1/A2a)” value in experiment [1] is on record as 52.6. Also, in experiment [1] (setting [3]), the Ki is 0.118 µM.

Values taken from patent US6506772B1, “Substituted [1,2,4]triazolo[1,5a]pyridine derivatives with activity as adenosine receptor ligands” (Hoffmann-La Roche Inc., priority 2000, dated 2003).
